From ChEMBL document CHEMBL5321219, “Selective degradation of cellular BRD3 and BRD4-L promoted by PROTAC molecules in six cancer cell lines” (Eur J Med Chem, 2023)
One block for each molecule: values may come before it. The source made the active and inactive calls. The calls are words filed in the database; no cut-off is given here.

Experiments:
[1] = molecular target: T1, Bromodomain-containing protein 3 (Homo sapiens, UniProt Q15059); test: Binding affinity to recombinant human BRD3 BD1 (24 to 144 residues) assessed as inhibition constant by fluorescence polarization binding assay
MM1.S [2] = test: Antiproliferative activity against human MM1.S cells assessed as cell growth inhibition measured after 4 days by CellTitre-Glo assay; type: functional, cell-based; conditions: 96 h
[3] = molecular target: T1, Bromodomain-containing protein 3; test: Binding affinity to recombinant human BRD3 BD2 (306 to 417 residues) assessed as inhibition constant by fluorescence polarization binding assay
A549 = test: Antiproliferative activity against human A549 cells assessed as cell growth inhibition measured after 4 days by CCK-8 assay; type: functional, cell-based; conditions: A549, 96 h
MV4-11 = test: Antiproliferative activity against human MV4-11 cells assessed as cell growth inhibition measured after 3 days by CellTitre-Glo assay; type: functional, cell-based; conditions: MV4-11, 72 h
MCF7 = test: Antiproliferative activity against human MCF7 cells assessed as cell growth inhibition measured after 4 days by CCK-8 assay; type: functional, cell-based; conditions: MCF7, 96 h
HeLa = test: Antiproliferative activity against human HeLa cells assessed as cell growth inhibition measured after 4 days by CCK-8 assay; type: functional, cell-based; conditions: 96 h
HGC-27 = test: Antiproliferative activity against human HGC-27 cells assessed as cell growth inhibition measured after 4 days by CCK-8 assay; type: functional, cell-based; conditions: HGC-27, 96 h
HepG2 = test: Antiproliferative activity against human HepG2 cells assessed as cell growth inhibition measured after 4 days by CCK-8 assay; type: functional, cell-based; conditions: HepG2, 96 h
[4] = molecular target: T2, Protein cereblon/Bromodomain-containing protein 4 (Homo sapiens) (UniProt O60885+Q96SW2); test: PROTAC activity at CRBN/BRD4-L in human MM1.S cells assessed as induction of protein degradation measured after 24 hrs by Western blot analysis; type: cell-based
[5] = molecular target: T3, Protein cereblon/Bromodomain-containing protein 2 (Homo sapiens) (UniProt P25440+Q96SW2); test: PROTAC activity at CRBN/BRD2 in human MV4-11 cells assessed as induction of protein degradation at 0.5 to 10 uM measured after 24 hrs by Western blot analysis; type: cell-based; conditions: dose 0.5-10 µM
[6] = molecular target: T4, Protein cereblon/Bromodomain-containing protein 3 (Homo sapiens) (UniProt Q15059+Q96SW2); test: PROTAC activity at CRBN/BRD3 in human MM1.S cells assessed as induction of protein degradation at 1 uM measured after 1 to 24 hrs by Western blot analysis; type: cell-based; conditions: time 1-24 hrs
[7] = molecular target: T2, Protein cereblon/Bromodomain-containing protein 4 (Homo sapiens); test: PROTAC activity at CRBN/BRD4-S in human MV4-11 cells assessed as induction of protein degradation at 0.5 to 10 uM measured after 24 hrs by Western blot analysis; type: cell-based; conditions: dose 0.5-10 µM
[8] = molecular target: T4, Protein cereblon/Bromodomain-containing protein 3 (Homo sapiens); test: PROTAC activity at CRBN/BRD3 in human HeLa cells assessed as induction of protein degradation at […] measured after 24 hrs by Western blot analysis; type: cell-based; conditions: dose lower 1.0 µM
[9] = molecular target: T2, Protein cereblon/Bromodomain-containing protein 4 (Homo sapiens); test: PROTAC activity at CRBN/BRD4-L in human HeLa cells assessed as induction of protein degradation at 1 to 50 uM measured after 24 hrs by Western blot analysis; type: cell-based; conditions: dose 1-50 µM
[10] = molecular target: T2, Protein cereblon/Bromodomain-containing protein 4 (Homo sapiens); test: PROTAC activity at CRBN/BRD4-S in human MM1.S cells assessed as induction of protein degradation at 1 uM measured after 1 to 24 hrs by Western blot analysis; type: cell-based; conditions: time 1-24 hrs
[11] = molecular target: T4, Protein cereblon/Bromodomain-containing protein 3 (Homo sapiens); test: PROTAC activity at CRBN/BRD3 in human MCF7 cells assessed as induction of protein degradation at 1 uM measured around 1 to 3 hrs by Western blot analysis; type: cell-based; conditions: time 1-3 hrs
[12] = molecular target: T4, Protein cereblon/Bromodomain-containing protein 3 (Homo sapiens); test: PROTAC activity at CRBN/BRD3 in human HGC-27 cells assessed as induction of protein degradation at 1 uM measured around 1 to 3 hrs by Western blot analysis; type: cell-based; conditions: time 1-3 hrs
[13] = molecular target: T3, Protein cereblon/Bromodomain-containing protein 2 (Homo sapiens); test: PROTAC activity at CRBN/BRD2 in human MM1.S cells assessed as induction of protein degradation at 1 uM measured after 1 to 24 hrs by Western blot analysis; type: cell-based; conditions: time 1-24 hrs
[14] = molecular target: T4, Protein cereblon/Bromodomain-containing protein 3 (Homo sapiens); test: PROTAC activity at CRBN/BRD3 in human MM1.S cells assessed as induction of protein degradation measured after 24 hrs by Western blot analysis; type: cell-based
[15] = molecular target: T2, Protein cereblon/Bromodomain-containing protein 4 (Homo sapiens); test: PROTAC activity at CRBN/BRD4-L in human MV4-11 cells assessed as induction of protein degradation at 0.5 to 10 uM measured after 24 hrs by Western blot analysis; type: cell-based; conditions: dose 0.5-10 µM
[16] = molecular target: T4, Protein cereblon/Bromodomain-containing protein 3 (Homo sapiens); test: PROTAC activity at CRBN/BRD3 in human MV4-11 cells assessed as induction of protein degradation at 0.5 to 10 uM measured after 24 hrs by Western blot analysis; type: cell-based; conditions: dose 0.5-10 µM
[17] = molecular target: T2, Protein cereblon/Bromodomain-containing protein 4 (Homo sapiens); test: PROTAC activity at CRBN/BRD4-L in human MM1.S cells assessed as induction of protein degradation at 1 uM measured after 1 to 24 hrs by Western blot analysis; type: cell-based; conditions: time 1-24 hrs
[18] = molecular target: T2, Protein cereblon/Bromodomain-containing protein 4 (Homo sapiens); test: PROTAC activity at CRBN/BRD4-L in human MCF7 cells assessed as induction of protein degradation at 1 to 50 uM measured after 24 hrs by Western blot analysis; type: cell-based; conditions: dose 1-50 µM
[19] = molecular target: T3, Protein cereblon/Bromodomain-containing protein 2 (Homo sapiens); test: PROTAC activity at CRBN/BRD2 in human MM1.S cells assessed as induction of protein degradation at 1 uM measured around 1 to 3 hrs by Western blot analysis; type: cell-based; conditions: time 1-3 hrs
[20] = molecular target: T4, Protein cereblon/Bromodomain-containing protein 3 (Homo sapiens); test: PROTAC activity at CRBN/BRD3 in human MM1.S cells assessed as induction of protein degradation at 1 uM measured around 1 to 3 hrs by Western blot analysis; type: cell-based; conditions: time 1-3 hrs
[21] = molecular target: T3, Protein cereblon/Bromodomain-containing protein 2 (Homo sapiens); test: PROTAC activity at CRBN/BRD2 in human MCF7 cells assessed as induction of protein degradation at 1 uM measured around 1 to 3 hrs by Western blot analysis; type: cell-based; conditions: time 1-3 hrs
[22] = molecular target: T3, Protein cereblon/Bromodomain-containing protein 2 (Homo sapiens); test: PROTAC activity at CRBN/BRD2 in human HGC-27 cells assessed as induction of protein degradation at 1 uM measured around 1 to 3 hrs by Western blot analysis; type: cell-based; conditions: time 1-3 hrs
[23] = molecular target: T2, Protein cereblon/Bromodomain-containing protein 4 (Homo sapiens); test: PROTAC activity at CRBN/BRD4-L in human HGC-27 cells assessed as induction of protein degradation at 1 uM measured around 1 to 3 hrs by Western blot analysis; type: cell-based; conditions: time 1-3 hrs
MM1.S [24] = test: Downregulation of c-Myc expression in human MM1.S cells at 1 uM measured after 1 to 24 hrs by Western blot analysis; type: functional, cell-based; conditions: time 1-24 hrs
[25] = molecular target: T4, Protein cereblon/Bromodomain-containing protein 3 (Homo sapiens); test: PROTAC activity at CRBN/BRD3 in human MCF7 cells assessed as induction of protein degradation at 1 to 50 uM measured after 24 hrs by Western blot analysis; type: cell-based; conditions: dose 1-50 µM
[26] = molecular target: T2, Protein cereblon/Bromodomain-containing protein 4 (Homo sapiens); test: PROTAC activity at CRBN/BRD4-L in human MCF7 cells assessed as induction of protein degradation at 1 uM measured around 1 to 3 hrs by Western blot analysis; type: cell-based; conditions: time 1-3 hrs
[27] = molecular target: T2, Protein cereblon/Bromodomain-containing protein 4 (Homo sapiens); test: PROTAC activity at CRBN/BRD4-L in human MM1.S cells assessed as induction of protein degradation at 1 uM measured around 1 to 3 hrs by Western blot analysis; type: cell-based; conditions: time 1-3 hrs

T2 sequence (Q96SW2 whole entry, looked up, other chains not shown): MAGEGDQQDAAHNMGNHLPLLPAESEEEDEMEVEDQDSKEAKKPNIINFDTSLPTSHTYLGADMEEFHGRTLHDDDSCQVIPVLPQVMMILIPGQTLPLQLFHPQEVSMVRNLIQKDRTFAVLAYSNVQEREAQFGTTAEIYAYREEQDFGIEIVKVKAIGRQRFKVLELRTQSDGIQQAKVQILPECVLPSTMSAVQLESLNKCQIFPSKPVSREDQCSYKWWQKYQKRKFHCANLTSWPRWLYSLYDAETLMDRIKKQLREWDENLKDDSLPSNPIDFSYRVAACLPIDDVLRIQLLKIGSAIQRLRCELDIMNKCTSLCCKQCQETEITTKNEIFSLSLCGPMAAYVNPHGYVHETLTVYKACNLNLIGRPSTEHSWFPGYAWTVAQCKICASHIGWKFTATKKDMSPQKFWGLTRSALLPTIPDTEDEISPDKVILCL
T1 sequence (Q15059 whole entry, the tested form may be a part): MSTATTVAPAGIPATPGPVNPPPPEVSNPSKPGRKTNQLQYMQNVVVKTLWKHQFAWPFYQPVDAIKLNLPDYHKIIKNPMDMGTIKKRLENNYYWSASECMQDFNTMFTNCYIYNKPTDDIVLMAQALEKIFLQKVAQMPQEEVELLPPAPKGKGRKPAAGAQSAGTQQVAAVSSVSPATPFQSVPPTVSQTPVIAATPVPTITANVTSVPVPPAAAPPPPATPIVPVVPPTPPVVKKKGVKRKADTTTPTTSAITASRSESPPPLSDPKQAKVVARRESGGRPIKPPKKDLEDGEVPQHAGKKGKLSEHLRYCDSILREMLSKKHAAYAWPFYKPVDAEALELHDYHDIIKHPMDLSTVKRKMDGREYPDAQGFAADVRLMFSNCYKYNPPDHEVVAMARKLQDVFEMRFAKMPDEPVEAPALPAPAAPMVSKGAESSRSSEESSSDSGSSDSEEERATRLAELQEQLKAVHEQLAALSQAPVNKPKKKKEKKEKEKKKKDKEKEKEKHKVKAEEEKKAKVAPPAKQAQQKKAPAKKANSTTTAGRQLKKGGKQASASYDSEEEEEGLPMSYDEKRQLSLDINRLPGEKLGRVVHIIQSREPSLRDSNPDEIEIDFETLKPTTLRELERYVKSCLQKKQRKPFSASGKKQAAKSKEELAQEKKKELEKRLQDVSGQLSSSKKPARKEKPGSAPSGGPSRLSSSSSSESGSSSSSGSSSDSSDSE
T4 sequence (Q15059 2-726 limits assumed): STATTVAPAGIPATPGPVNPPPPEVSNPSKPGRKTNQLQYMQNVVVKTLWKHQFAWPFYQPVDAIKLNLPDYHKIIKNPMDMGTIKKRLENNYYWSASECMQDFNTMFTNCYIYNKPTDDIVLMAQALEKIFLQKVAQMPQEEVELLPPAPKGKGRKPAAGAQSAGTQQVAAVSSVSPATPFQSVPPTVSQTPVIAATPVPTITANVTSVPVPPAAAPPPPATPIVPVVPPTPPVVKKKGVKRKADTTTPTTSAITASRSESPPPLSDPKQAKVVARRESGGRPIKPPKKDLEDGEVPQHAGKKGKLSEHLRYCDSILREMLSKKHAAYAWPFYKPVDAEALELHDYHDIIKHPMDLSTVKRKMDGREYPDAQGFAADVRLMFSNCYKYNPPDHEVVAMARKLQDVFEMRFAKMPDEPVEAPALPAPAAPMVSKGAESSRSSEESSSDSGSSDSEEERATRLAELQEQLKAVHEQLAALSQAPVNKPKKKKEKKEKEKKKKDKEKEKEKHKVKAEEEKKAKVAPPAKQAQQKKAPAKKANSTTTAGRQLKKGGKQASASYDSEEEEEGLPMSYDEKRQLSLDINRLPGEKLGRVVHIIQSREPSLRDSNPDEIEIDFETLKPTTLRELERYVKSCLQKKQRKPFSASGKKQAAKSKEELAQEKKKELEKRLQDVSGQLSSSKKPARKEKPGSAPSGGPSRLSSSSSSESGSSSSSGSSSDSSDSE
T4 sequence (Q96SW2 whole entry partner): as the sequence (Q96SW2 whole entry, looked up, other chains not shown) above
T3 sequence (P25440 whole entry, looked up): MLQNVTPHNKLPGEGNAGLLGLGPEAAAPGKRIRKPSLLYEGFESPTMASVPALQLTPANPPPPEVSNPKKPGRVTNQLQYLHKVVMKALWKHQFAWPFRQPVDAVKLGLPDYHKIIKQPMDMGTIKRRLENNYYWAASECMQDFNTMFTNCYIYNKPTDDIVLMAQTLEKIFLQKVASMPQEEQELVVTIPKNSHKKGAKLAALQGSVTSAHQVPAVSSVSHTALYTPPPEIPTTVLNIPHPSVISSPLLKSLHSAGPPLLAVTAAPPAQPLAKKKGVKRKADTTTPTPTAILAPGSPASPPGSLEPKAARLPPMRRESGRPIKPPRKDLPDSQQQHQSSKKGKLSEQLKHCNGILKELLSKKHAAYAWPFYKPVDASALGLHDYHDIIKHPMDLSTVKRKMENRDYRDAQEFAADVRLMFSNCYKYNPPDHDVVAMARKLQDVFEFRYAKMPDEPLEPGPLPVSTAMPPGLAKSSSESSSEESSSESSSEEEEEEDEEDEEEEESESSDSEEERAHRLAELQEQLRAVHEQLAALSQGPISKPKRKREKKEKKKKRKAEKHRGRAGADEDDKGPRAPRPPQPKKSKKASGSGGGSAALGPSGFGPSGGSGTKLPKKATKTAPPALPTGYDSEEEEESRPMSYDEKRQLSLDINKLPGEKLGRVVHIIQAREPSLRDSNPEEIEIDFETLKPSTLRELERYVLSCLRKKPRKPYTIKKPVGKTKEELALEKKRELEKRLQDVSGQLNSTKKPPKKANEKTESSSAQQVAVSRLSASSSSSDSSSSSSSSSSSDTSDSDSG
T3 sequence (Q96SW2 whole entry, looked up): as the sequence (Q96SW2 whole entry, looked up, other chains not shown) above

Ki [1]: 13.1 nM
IC50 (MM1.S [2]): 2640 nM
Ki [3]: 2.24 nM
IC50 (A549): 8.48 µM
IC50 (MV4-11): 593 nM
IC50 (MCF7): 4.84 µM
IC50 (HeLa): 3.23 µM
IC50 (HepG2): 7.56 µM
Compound: Cc1nnc2n1-c1ccc(-c3ccc(CNCCCCc4cccc5c4CN(C4CCC(=O)N(C)C4=O)C5=O)cc3)cc1C(Nc1ccc(Cl)cc1)CC2 (configuration not stated)
IC50 (HGC-27): 6 µM

Activity [4]: Dose-Dependent Effect
Ki [1]: 7.28 nM
Activity [5]: Active
Activity [6]: Active
Activity [7]: Active
Activity [8]: Active
Activity [9]: Active
IC50 (MM1.S [2]): 2470 nM
Activity [10]: inactive
Ki [3]: 5.26 nM
Activity [11]: Active
Activity [12]: Active
Activity [13]: Active
Activity [14]: Dose-Dependent Effect
Activity [15]: Active
Activity [16]: Active
Activity [17]: Active
IC50 (A549): 12.3 µM
Activity [18]: Active
Activity [19]: Active
IC50 (MV4-11): 11.8 nM
IC50 (MCF7): 5.3 µM
IC50 (HeLa): 16.1 µM
Activity [20]: Active
Activity [21]: Active
Activity [22]: Active
IC50 (HepG2): 19.8 µM
Activity [23]: Active
Activity [25]: Active
Activity [26]: Active
Activity [27]: Active
Compound: Cc1sc2c(c1C)C(c1ccc(Cl)cc1)=N[C@@H](CC(=O)NCCCCNC(=O)COc1cccc3c1C(=O)N(C1CCC(=O)NC1=O)C3=O)c1nnc(C)n1-2 (some centres not stated)
IC50 (HGC-27): 0.88 µM
Activity (MM1.S [24]): Active
